These results are taken from patent US7932262B2 (Novartis AG, priority 2006, dated 2011).

One experiment relates to PC3MM cells. In words: Cell Proliferation Assay (Cell Titer Glo), PC3MM. The experiment is classed as cell-based. As to conditions: cell proliferation, PC3MM cells; read-out: CPEC50 PC3MM. The method in brief: (§1)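 Following a 3-day compound exposure (37° C., 5% CO2) of A2780 or PC3MM cells plated at 1000 per well, viability was measured by Cell Titer Glo luminescence in fresh medium, read 10 min after reagent addition.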
On the technique in general: Cellular ATP, detected with luciferase, serves as a proxy for viable cell number.

The target in the next experiment is T1, PDK1 kinase (Homo sapiens, UniProt O15530).
T1 sequence (O15530 1-556): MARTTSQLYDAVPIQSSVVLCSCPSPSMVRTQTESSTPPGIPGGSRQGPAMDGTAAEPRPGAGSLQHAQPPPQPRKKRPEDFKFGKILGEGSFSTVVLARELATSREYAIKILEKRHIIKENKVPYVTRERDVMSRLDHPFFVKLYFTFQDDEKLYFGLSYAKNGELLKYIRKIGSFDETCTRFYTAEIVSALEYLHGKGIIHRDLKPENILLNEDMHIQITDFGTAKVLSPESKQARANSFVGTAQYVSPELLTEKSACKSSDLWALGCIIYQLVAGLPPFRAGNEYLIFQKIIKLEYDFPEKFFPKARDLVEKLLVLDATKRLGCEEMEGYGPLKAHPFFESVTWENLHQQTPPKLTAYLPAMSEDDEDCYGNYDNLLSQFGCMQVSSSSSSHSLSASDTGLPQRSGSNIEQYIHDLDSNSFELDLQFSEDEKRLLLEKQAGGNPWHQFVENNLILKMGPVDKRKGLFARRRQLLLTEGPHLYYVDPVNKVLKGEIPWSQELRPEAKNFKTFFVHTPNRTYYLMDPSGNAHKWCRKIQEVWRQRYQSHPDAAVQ
As to the kind of experiment: PDK1 Kinase Alpha Screen Assay. The class given is biochemical. As to conditions: PDK1 Kinase Alpha Screen Assay; read-out: PDK1 IC50. The method in brief: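 AlphaScreen readout: phospho-peptide captured by phospho-(Ser/Thr) PKA substrate antibody (0.3 mg/ml) on protein A acceptor beads, biotin peptide on streptavidin donor beads (25 μg/ml each), overnight at room temperature. Kinase step used 50 nM PDK1-4 peptide, 10 uM ATP, 3-18 hours.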

The subject of the next experiment is A2780 cells. As to the kind of experiment: Cell Proliferation Assay (Cell Titer Glo), A2780. Particulars: Homo sapiens; cell proliferation, A2780 cells; read-out: CPEC50 A2780. The class given is cell-based. In short, it runs like this:
as §1

Broadly, the IC50 is the concentration needed to halve the response being measured.

Consider `NS(=O)(=O)c1ccc(Nc2ncc3cccc(-c4ccccc4)c3n2)cc1` [Compound 757, 4-(8-phenylquinazolin-2-ylamino)benzenesulfonamide], for which the EC50 in the experiment on PC3MM cells and with A2780 cells was below 5 µM in each case. For the same compound, at PDK1 kinase, the IC50 was below 5 µM.
For the compound `NC(=O)c1ccc(-c2ccc3cnc(Nc4ccc(S(N)(=O)=O)cc4)nc3c2)cc1F` [Compound 759, 2-fluoro-4-(2-(4-sulfamoylphenylamino)quinazolin-7-yl)benzamide], the EC50 with PC3MM cells was below 5 µM; with A2780 cells it was 5 to 10 µM. The IC50 on PDK1 kinase is below 5 µM.
Take `NS(=O)(=O)c1ccc(Nc2ncc3cccc(C(=O)N4CCCC4)c3n2)cc1` [Compound 760, 4-(8-(pyrrolidine-1-carbonyl)quinazolin-2-ylamino)benzenesulfonamide]: the EC50 with PC3MM cells is below 5 µM; in the experiment with A2780 cells, 5 to 10 µM. For the same compound, the IC50 at PDK1 kinase was below 5 µM.
Take `COCCNC(=O)c1cccc2cnc(Nc3ccc(S(N)(=O)=O)cc3)nc12` [Compound 761, N-(2-methoxyethyl)-2-(4-sulfamoylphenylamino)quinazoline-8-carboxamide]: the EC50 was 5 to 10 µM with PC3MM cells and below 5 µM in the experiment on A2780 cells. Besides, the IC50 on PDK1 kinase is below 5 µM.
Take `NS(=O)(=O)c1ccc(Nc2ncc3cccc(C(=O)NCCN4CCCC4)c3n2)cc1` [Compound 762, N-(2-(pyrrolidin-1-yl)ethyl)-2-(4-sulfamoylphenylamino)quinazoline-8-carboxamide]: the EC50 was 5 to 10 µM with PC3MM cells and below 5 µM with A2780 cells. Further, the IC50 on PDK1 kinase is below 5 µM.
As for `COCCN1CCN(C(=O)c2ccc3cnc(Nc4ccc(S(N)(=O)=O)cc4)nc3c2)CC1` [Compound 764, 4-(7-(4-(2-methoxyethyl)piperazine-1-carbonyl)quinazolin-2-ylamino)benzenesulfonamide], the EC50 lay in the range of 10 to 25 µM in the experiment with PC3MM cells and 5 to 10 µM in the experiment on A2780 cells. Moreover, the IC50 at PDK1 kinase is 10 to 25 µM.
`COc1cc(-c2cccc3cnc(Nc4ccc(S(N)(=O)=O)cc4)nc23)c(Cl)cn1` [Compound 765, 4-(8-(5-chloro-2-methoxypyridin-4-yl)quinazolin-2-ylamino)benzenesulfonamide]: the EC50 in the experiment on PC3MM cells and in the experiment with A2780 cells was below 5 µM each time. Besides, the IC50 on PDK1 kinase was below 5 µM.
As for `CC(C)N1CCN(C(=O)c2ccc3cnc(Nc4ccc(S(N)(=O)=O)cc4)nc3c2)CC1` [Compound 766, 4-(7-(4-isopropylpiperazine-1-carbonyl)quinazolin-2-ylamino)benzenesulfonamide], the EC50 in the experiment on PC3MM cells lay in the range of 10 to 25 µM; with A2780 cells it was 5 to 10 µM. Moreover, the IC50 on PDK1 kinase is below 5 µM.
For `CN1CCC(NC(=O)c2ccc3cnc(Nc4ccc(S(N)(=O)=O)cc4)nc3c2)CC1` [Compound 767, N-(1-methylpiperidin-4-yl)-2-(4-sulfamoylphenylamino)quinazoline-7-carboxamide], the EC50 with PC3MM cells is below 5 µM; with A2780 cells, 5 to 10 µM. Besides, the IC50 at PDK1 kinase was below 5 µM.
Take `NS(=O)(=O)c1ccc(Nc2ncc3cccc(C(=O)N4CCOCC4)c3n2)cc1` [Compound 768, 4-(8-(morpholine-4-cartbonyl)quinazolin-2-ylamino)benzenesulfonamide]: the EC50 with PC3MM cells and with A2780 cells was 5 to 10 µM in each case. The 50% inhibitory concentration (IC50) at PDK1 kinase lay in the range of 5 to 10 µM.
For `CN1CCN(C(=O)c2cccc3cnc(Nc4ccc(S(N)(=O)=O)cc4)nc23)CC1` [Compound 769, 4-(8-(4-methylpiperazine-1-carbonyl)quinazolin-2-ylamino)benzenesulfonamide], the EC50 was below 5 µM in the experiment with PC3MM cells and 5 to 10 µM with A2780 cells. On PDK1 kinase, the IC50 is below 5 µM.
Consider `NS(=O)(=O)c1ccc(Nc2ncc3cccc(C(=O)N4CCS(=O)(=O)CC4)c3n2)cc1` [Compound 770], for which the results for the EC50 in the experiment with PC3MM cells and with A2780 cells were 10 to 25 µM and 5 to 10 µM, respectively. The IC50 at PDK1 kinase is 10 to 25 µM.
For the compound `O=S(=O)(c1cccc(Nc2ncc3cccc(OC4CCNCC4)c3n2)c1)N1CCOCC1` [Compound 773, N-(3-(morpholinosulfonyl)phenyl)-8-(piperidin-4-yloxy)quinazolin-2-amine], the EC50 with PC3MM cells and in the experiment with A2780 cells was below 5 µM each time. The IC50 at PDK1 kinase is below 5 µM.
On to `CC(C)N1CCC(Oc2cccc3cnc(Nc4cccc(S(=O)(=O)N5CCOCC5)c4)nc23)CC1` [Compound 774, 8-(1-isopropylpiperidin-4-yloxy)-N-(3-(morpholinosulfonyl)phenyl)quinazolin-2-amine], for which the EC50 with PC3MM cells and in the experiment with A2780 cells was below 5 µM in each case. At PDK1 kinase, the IC50 was below 5 µM.
Take `CN1CCN(S(=O)(=O)c2cccc(Nc3ncc4cccc(OC5CCNCC5)c4n3)c2)CC1` [Compound 775, N-(3-(4-methylpiperazin-1-ylsulfonyl)phenyl)-8-(piperidin-4-yloxy)quinazolin-2-amine]: the EC50 in the experiment on PC3MM cells was below 5 µM; in the experiment with A2780 cells, 5 to 10 µM. Besides, the IC50 on PDK1 kinase was below 5 µM.
In the case of `CC(C)NS(=O)(=O)c1cccc(Nc2ncc3cccc(OC4CCNCC4)c3n2)c1` [Compound 776, N-isopropyl-3-(8-(piperidin-4-yloxy)quinazolin-2-ylamino)benzenesulfonamide], the EC50 in the experiment on PC3MM cells and with A2780 cells was below 5 µM each time. Besides, at PDK1 kinase, the IC50 was below 5 µM.
Turning to `COCCNS(=O)(=O)c1cccc(Nc2ncc3cccc(OC4CCNCC4)c3n2)c1` [Compound 777, N-(2-methoxyethyl)-3-(8-(piperidin-4-yloxy)quinazolin-2-ylamino)benzenesulfonamide], the EC50 with PC3MM cells was below 5 µM; with A2780 cells, 5 to 10 µM. Further, the IC50 at PDK1 kinase is below 5 µM.
Consider `CN1CCN(S(=O)(=O)c2ccc(Nc3ncc4cccc(OC5CCNCC5)c4n3)cc2)CC1` [Compound 778, N-(4-(4-methylpiperazin-1-ylsulfonyl)phenyl)-8-(piperidin-4-yloxy)quinazolin-2-amine], for which the EC50 in the experiment with PC3MM cells and with A2780 cells was below 5 µM each time. The IC50 at PDK1 kinase was below 5 µM.
Regarding `NC(=O)c1cccc(-c2ccc3cnc(Nc4ccc(S(N)(=O)=O)cc4)nc3c2)c1` [Compound 782], the EC50 is below 5 µM in the experiment with PC3MM cells and 5 to 10 µM in the experiment with A2780 cells. Also, the IC50 on PDK1 kinase is below 5 µM.
With `NC(=O)c1ccc(-c2ccc3cnc(Nc4ccc(S(N)(=O)=O)cc4)nc3c2)cc1` [Compound 783, 4-(2-(4-sulfamoylphenylamino)quinazolin-7-yl)benzamide], the EC50 with PC3MM cells is below 5 µM; with A2780 cells it was 5 to 10 µM. Besides, at PDK1 kinase, the IC50 is below 5 µM.
On to `NS(=O)(=O)c1ccc(Nc2ncc3ccc(-c4cccc(S(N)(=O)=O)c4)cc3n2)cc1` [Compound 786, 3-(2-(4-sulfamoylphenylamino)quinazolin-7-yl)benzenesulfonamide], for which the results for the EC50 with PC3MM cells and in the experiment on A2780 cells were below 5 µM and 5 to 10 µM, respectively. In addition, the IC50 on PDK1 kinase is below 5 µM.
`Nc1ccc(-c2ccc3cnc(Nc4ccc(S(N)(=O)=O)cc4)nc3c2)cn1` [Compound 789, 4-(7-(6-aminopyridin-3-yl)quinazolin-2-ylamino)benzenesulfonamide]: the EC50 in the experiment on PC3MM cells and in the experiment on A2780 cells was below 5 µM throughout. Also, at PDK1 kinase, the IC50 is below 5 µM.
With `NC(=O)c1ccc(-c2ccc3cnc(Nc4ccc(S(N)(=O)=O)cc4)nc3c2)cn1` [Compound 790, 5-(2-(4-sulfamoylphenylamino)quinazolin-7-yl)picolinamide], the EC50 in the experiment on PC3MM cells is below 5 µM; with A2780 cells, 5 to 10 µM. Besides, the IC50 on PDK1 kinase was below 5 µM.
Take `NS(=O)(=O)c1ccc(Nc2ncc3ccc(-c4cn[nH]c4)cc3n2)cc1` [Compound 792, 4-(7-(1H-pyrazol-4-yl)quinazolin-2-ylamino)benzenesulfonamide]: the EC50 in the experiment on PC3MM cells and in the experiment on A2780 cells was below 5 µM each time. For the same compound, the IC50 at PDK1 kinase was below 5 µM.
Take `NS(=O)(=O)c1ccc(Nc2ncc3ccc(-c4cccnc4)cc3n2)cc1` [Compound 793, 4-(7-(pyridin-3-yl)quinazolin-2-ylamlno)benzenesulfonamide]: the EC50 with PC3MM cells and in the experiment with A2780 cells was below 5 µM throughout. For the same compound, at PDK1 kinase, the IC50 is below 5 µM.
On to `CNC(=O)c1ccc(Nc2ncc3cccc(OC4CCN(C(C)C)CC4)c3n2)cc1` [Compound 796, 4-(8-(1-isopropylpiperidin-4-yloxy)quinazolin-2-ylamino)-N-methylbenzamide], for which the EC50 in the experiment with PC3MM cells and in the experiment on A2780 cells was below 5 µM throughout. Also, the IC50 at PDK1 kinase was below 5 µM.
Turning to `CN1CCN(C(=O)c2ccc3cnc(Nc4ccc(S(N)(=O)=O)cc4)nc3c2)CC1` [Compound 798, 4-(7-(4-methylpiperazine-1-carbonyl)quinazolin-2-ylamino)benzenesulfonamide], the EC50 with PC3MM cells is 10 to 25 µM; with A2780 cells, 5 to 10 µM. Besides, the IC50 at PDK1 kinase was 10 to 25 µM.
